Laboratory results reported in patent US3960877A, “N-monosubstituted-2,3-pyridinedicarboxamides, and related compounds” (priority 1974, dated 1976).

What was measured:
Type in all cases: in vivo
Wild Oats [1] = experiment: Preemergence herbicidal activity, % control of plant growth; details: Avena fatua, pre-emergence, 504 h, 16 lb/acre, about 3 weeks
Source text: (§1) By "preemergence" is meant that the compound is applied to the soil prior to emergence of the weed species sought to be controlled. This term, as used herein, also means the application of the herbicidal compounds falling within the scope of this disclosure to areas wherein useful or desirable plants are either growing or have been sown, but where the undesirable plants sought to be controlled have not as yet emerged.
(§2) In using the compound, seeds of the types of plants set forth in Table II were sown in fresh soil. In the preemergence test the soil was sprayed with a solution of the test compound immediately after the seeds were planted, and before any noticeable growth developed. The solution was about a 2 percent by weight solution of the compound in acetone and/or alcohol. The compound was applied at the rate of 16 pounds per acre of soil surface.
(§3) Approximately 3 weeks after spray application, the herbicidal activity of the compound was determined by visual observation of the treated area in comparison with untreated control areas. These observations are reported below in Table II wherein the average activity rating is reported as the percent control of plant growth.
(§4) *Preemergence test: compound applied at rate of 16 lb/acre

Pigweed [2] = experiment: as above; details: Amaranthus retroflexus, pre-emergence, 504 h, 16 lb/acre, about 3 weeks
Source text: as §1, §2, §3, §4

Lambsquarters [3] = experiment: as above; details: Chenopodium album, pre-emergence, 504 h, 16 lb/acre, about 3 weeks
Source text: as §1, §2, §3, §4

Cheatgrass [4] = experiment: as above; details: Bromus tectorum, pre-emergence, 504 h, 16 lb/acre, about 3 weeks
Source text: as §1, §2, §3, §4

Barnyard Grass [5] = experiment: as above; details: Echinochloa crus-galli, pre-emergence, 504 h; barnyard grass; 16 lb/acre; about 3 weeks
Source text: as §1, §2, §3, §4

Curled Dock [6] = experiment: as above; details: pre-emergence, 504 h, 16 lb/acre, about 3 weeks
Source text: as §1, §2, §3, §4

Crabgrass [7] = experiment: as above; details: Digitaria sanguinalis, pre-emergence, 504 h, 16 lb/acre, about 3 weeks
Source text: as §1, §2, §3, §4

Snapbeans [8] = experiment: as above; details: pre-emergence, 504 h, 16 lb/acre, about 3 weeks
Source text: as §1, §2, §3, §4

Alfalfa [9] = experiment: as above; details: Medicago sativa, pre-emergence, 504 h, 16 lb/acre, about 3 weeks
Source text: as §1, §2, §3, §4

Foxtail [10] = experiment: as above; details: Setaria, pre-emergence, 504 h, 16 lb/acre, about 3 weeks
Source text: as §1, §2, §3, §4

Johnsongrass [11] = experiment: as above; details: Sorghum halepense, pre-emergence, 504 h, 16 lb/acre, about 3 weeks
Source text: as §1, §2, §3, §4

Velvetleaf [12] = experiment: as above; details: Abutilon theophrasti, pre-emergence, 504 h, 16 lb/acre, about 3 weeks
Source text: as §1, §2, §3, §4

Corn [13] = experiment: as above; details: Zea mays, pre-emergence, 504 h, 16 lb/acre, about 3 weeks
Source text: as §1, §2, §3, §4

Cucumber [14] = experiment: as above; details: Cucumis sativus, pre-emergence, 504 h, 16 lb/acre, about 3 weeks
Source text: as §1, §2, §3, §4

Nutgrass [15] = experiment: as above; details: pre-emergence, 504 h, 16 lb/acre, about 3 weeks
Source text: as §1, §2, §3, §4

Chickweed [16] = experiment: as above; details: pre-emergence, 504 h, 16 lb/acre, about 3 weeks
Source text: as §1, §2, §3, §4

Yellow Rocket [17] = experiment: as above; details: pre-emergence, 504 h, 16 lb/acre, about 3 weeks
Source text: as §1, §2, §3, §4

Wild Oats [18] = experiment: Postemergence herbicidal activity, % control of plant growth; details: Avena fatua, post-emergence, 264 h, 8 lb/acre, about 11 days
Source text: (§5) By the term "postemergence" is meant that the compound is applied to the plant sought to be controlled after it has emerged from the soil surface. This term is also used to describe the application of herbicidally active compounds to soil surface in and around growing plants sought to be controlled for purposes of effecting root absorption by the undesirable plant species.
(§6) In the postemergence test the soil and developing plants were sprayed approximately 2 weeks after the seeds were sown. The compound was applied at the rate of 8 pounds per acre from about a 2 percent by weight solution of the test compound in acetone and/or alcohol. The postemergence herbicidal activity was measured in the same way as the preemergence activity; i.e. visual observation approximately 11 days after spraying, and expressed as the percent control of plant growth.
(§7) **Postemergence test: compound applied at rate of 8 lb/acre

Pigweed [19] = experiment: as above; details: Amaranthus retroflexus, post-emergence, 264 h, 8 lb/acre, about 11 days
Source text: as §5, §6, §7

Lambsquarters [20] = experiment: as above; details: Chenopodium album, post-emergence, 264 h, 8 lb/acre, about 11 days
Source text: as §5, §6, §7

Cheatgrass [21] = experiment: as above; details: Bromus tectorum, post-emergence, 264 h, 8 lb/acre, about 11 days
Source text: as §5, §6, §7

Barnyard Grass [22] = experiment: as above; details: Echinochloa crus-galli, post-emergence, 264 h, 8 lb/acre, about 11 days
Source text: as §5, §6, §7

Curled Dock [23] = experiment: as above; details: post-emergence, 264 h, 8 lb/acre, about 11 days
Source text: as §5, §6, §7

Crabgrass [24] = experiment: as above; details: Digitaria sanguinalis, post-emergence, 264 h, 8 lb/acre, about 11 days
Source text: as §5, §6, §7

Snapbeans [25] = experiment: as above; details: post-emergence, 264 h, 8 lb/acre, about 11 days
Source text: as §5, §6, §7

Alfalfa [26] = experiment: as above; details: Medicago sativa, post-emergence, 264 h, 8 lb/acre, about 11 days
Source text: as §5, §6, §7

Foxtail [27] = experiment: as above; details: Setaria, post-emergence, 264 h, 8 lb/acre, about 11 days
Source text: as §5, §6, §7

Johnsongrass [28] = experiment: as above; details: Sorghum halepense, post-emergence, 264 h, 8 lb/acre, about 11 days
Source text: as §5, §6, §7

Velvetleaf [29] = experiment: as above; details: Abutilon theophrasti, post-emergence, 264 h, 8 lb/acre, about 11 days
Source text: as §5, §6, §7

Corn [30] = experiment: as above; details: Zea mays, post-emergence, 264 h, 8 lb/acre, about 11 days
Source text: as §5, §6, §7

Cucumber [31] = experiment: as above; details: Cucumis sativus, post-emergence, 264 h, 8 lb/acre, about 11 days
Source text: as §5, §6, §7

Nutgrass [32] = experiment: as above; details: post-emergence, 264 h, 8 lb/acre, about 11 days
Source text: as §5, §6, §7

Chickweed [33] = experiment: as above; details: post-emergence, 264 h, 8 lb/acre, about 11 days
Source text: as §5, §6, §7

Yellow Rocket [34] = experiment: as above; details: post-emergence, 264 h, 8 lb/acre, about 11 days
Source text: as §5, §6, §7

Row | Compound | pest or weed control at 17933.6 g/ha (Wild Oats [1]) [%] | pest or weed control at 17933.6 g/ha (Pigweed [2]) [%] | pest or weed control at 17933.6 g/ha (Lambsquarters [3]) [%] | pest or weed control at 17933.6 g/ha (Cheatgrass [4]) [%] | pest or weed control at 17933.6 g/ha (Barnyard Grass [5]) [%] | pest or weed control at 17933.6 g/ha (Curled Dock [6]) [%] | pest or weed control at 17933.6 g/ha (Crabgrass [7]) [%] | pest or weed control at 17933.6 g/ha (Snapbeans [8]) [%] | pest or weed control at 17933.6 g/ha (Alfalfa [9]) [%] | pest or weed control at 17933.6 g/ha (Foxtail [10]) [%] | pest or weed control at 17933.6 g/ha (Johnsongrass [11]) [%] | pest or weed control at 17933.6 g/ha (Velvetleaf [12]) [%] | plant injury at 17933.6 g/ha (Corn [13]) [%] | pest or weed control at 17933.6 g/ha (Cucumber [14]) [%] | pest or weed control at 17933.6 g/ha (Nutgrass [15]) [%] | pest or weed control at 17933.6 g/ha (Chickweed [16]) [%] | pest or weed control at 17933.6 g/ha (Yellow Rocket [17]) [%] | pest or weed control at 8966.8 g/ha (Wild Oats [18]) [%] | pest or weed control at 8966.8 g/ha (Pigweed [19]) [%] | pest or weed control at 8966.8 g/ha (Lambsquarters [20]) [%] | further results
1 | CCn1c(=O)[nH]c2cccnc2c1=O [3-ethyl-pyrido[3,2-d]pyrimidine-2,4(1H,3H)-dione] | 100 | 100 | 100 | 100 | 40 | 100 | 100 | 100 | 100 | 40 | 60 | 90 | 10 | 100 | 10 | 100 | 100 | 0 | 90 | 100 | pest or weed control at 8966.8 g/ha (Cheatgrass [21]): 30%; pest or weed control at 8966.8 g/ha (Barnyard Grass [22]): 10%; pest or weed control at 8966.8 g/ha (Curled Dock [23]): 90%; pest or weed control at 8966.8 g/ha (Crabgrass [24]): 80%; pest or weed control at 8966.8 g/ha (Snapbeans [25]): 80%; pest or weed control at 8966.8 g/ha (Alfalfa [26]): 50%; pest or weed control at 8966.8 g/ha (Foxtail [27]): 40%; pest or weed control at 8966.8 g/ha (Johnsongrass [28]): 60%; pest or weed control at 8966.8 g/ha (Velvetleaf [29]): 100%; plant injury at 8966.8 g/ha (Corn [30]): 10%; pest or weed control at 8966.8 g/ha (Cucumber [31]): 50%; pest or weed control at 8966.8 g/ha (Nutgrass [32]): 10%; pest or weed control at 8966.8 g/ha (Chickweed [33]): 100%; pest or weed control at 8966.8 g/ha (Yellow Rocket [34]): 100%
2 | CCCn1c(=O)[nH]c2cccnc2c1=O [3-propyl-pyrido[3,2-d]pyrimidine-2,4(1H,3H)-dione] | 100 | 100 | 100 | 100 | 100 | 100 | 100 | 100 | 100 | 100 | 100 | 100 | 100 | 100 | 20 | 100 | 100 | 90 | 100 | 100 | pest or weed control at 8966.8 g/ha (Cheatgrass [21]): 100%; pest or weed control at 8966.8 g/ha (Barnyard Grass [22]): 100%; pest or weed control at 8966.8 g/ha (Curled Dock [23]): 100%; pest or weed control at 8966.8 g/ha (Crabgrass [24]): 100%; pest or weed control at 8966.8 g/ha (Snapbeans [25]): 100%; pest or weed control at 8966.8 g/ha (Alfalfa [26]): 100%; pest or weed control at 8966.8 g/ha (Foxtail [27]): 100%; pest or weed control at 8966.8 g/ha (Johnsongrass [28]): 100%; pest or weed control at 8966.8 g/ha (Velvetleaf [29]): 100%; plant injury at 8966.8 g/ha (Corn [30]): 60%; pest or weed control at 8966.8 g/ha (Cucumber [31]): 100%; pest or weed control at 8966.8 g/ha (Nutgrass [32]): 70%; pest or weed control at 8966.8 g/ha (Chickweed [33]): 100%; pest or weed control at 8966.8 g/ha (Yellow Rocket [34]): 100%
3 | C=CCn1c(=O)[nH]c2cccnc2c1=O [3-allyl-pyrido[3,2-d]pyrimidine-2,4(1H,3H)-dione] | 100 | 100 | 100 | 100 | 90 | 100 | 100 | 100 | 100 | 90 | 90 | 90 | 50 | 100 | 20 | 100 | 100 | 20 | 100 | 100 | pest or weed control at 8966.8 g/ha (Cheatgrass [21]): 30%; pest or weed control at 8966.8 g/ha (Barnyard Grass [22]): 100%; pest or weed control at 8966.8 g/ha (Curled Dock [23]): 100%; pest or weed control at 8966.8 g/ha (Crabgrass [24]): 100%; pest or weed control at 8966.8 g/ha (Snapbeans [25]): 100%; pest or weed control at 8966.8 g/ha (Alfalfa [26]): 100%; pest or weed control at 8966.8 g/ha (Foxtail [27]): 100%; pest or weed control at 8966.8 g/ha (Johnsongrass [28]): 100%; pest or weed control at 8966.8 g/ha (Velvetleaf [29]): 100%; plant injury at 8966.8 g/ha (Corn [30]): 30%; pest or weed control at 8966.8 g/ha (Cucumber [31]): 100%; pest or weed control at 8966.8 g/ha (Nutgrass [32]): 30%; pest or weed control at 8966.8 g/ha (Chickweed [33]): 100%; pest or weed control at 8966.8 g/ha (Yellow Rocket [34]): 100%
4 | CCC(C)n1c(=O)[nH]c2nccnc2c1=O (stereo not shown) [Lumazine, 3-sec-butyl] | 30 | 100 | 100 | 90 | 40 | 70 | 100 | 90 | 100 | 30 | 40 | 100 | 10 | 10 | 40 | 40 | 100 | 0 | 20 | 100 | pest or weed control at 8966.8 g/ha (Cheatgrass [21]): 0%; pest or weed control at 8966.8 g/ha (Barnyard Grass [22]): 0%; pest or weed control at 8966.8 g/ha (Curled Dock [23]): 50%; pest or weed control at 8966.8 g/ha (Crabgrass [24]): 0%; pest or weed control at 8966.8 g/ha (Snapbeans [25]): 20%; pest or weed control at 8966.8 g/ha (Alfalfa [26]): 50%; pest or weed control at 8966.8 g/ha (Foxtail [27]): 0%; pest or weed control at 8966.8 g/ha (Johnsongrass [28]): 0%; pest or weed control at 8966.8 g/ha (Velvetleaf [29]): 90%; plant injury at 8966.8 g/ha (Corn [30]): 0%; pest or weed control at 8966.8 g/ha (Cucumber [31]): 60%; pest or weed control at 8966.8 g/ha (Nutgrass [32]): 0%; pest or weed control at 8966.8 g/ha (Chickweed [33]): 0%; pest or weed control at 8966.8 g/ha (Yellow Rocket [34]): 100%
